In patent US11331370B2, “Combination product for the prevention of sexually transmitted infections” (priority 2014, dated 2022):

Assays:
[1] = system: HIV-1ADA-M (R5 virus); assay: MAGI assay in TZM-bl cells, anti-HIV activity; assay type: cell-based; conditions: 72 h, FIG. 1A
Experimental: (§1) FIG. 1 includes logarithmic plots which show the percentage of virus replication in the presence of GRFT (nM). Data in FIG. 1 A and FIG. 1 B confirm that GRFT has potent activity against HIV. […] In FIG. 1A, anti-HIV activity was tested in TZM-bl cells using the MAGI assay (R Begay O, et al. AIDS Research and Human Retroviruses, 2011 Sep. 1; 27(9):1019-24) and the laboratory strains HIV-1MN (X4 virus) and HIV-1ADA-M ([…]). In FIG. 1B, anti-HIV activity was tested in PBMC (Trkola A, et al., J Virol. 1999 November; 73(11):8966-74) using the laboratory strains HIV-1NL4-3. In FIG. 1C, anti-HPV activity was evaluated in HeLa cells using a luciferase reporter gene assay (Buck C B, et al. PLoS Pathog. 2006 Jul. 1; 2(7):e69) and testing the antiviral activity against three different HPV PsV types (16, 18 and 45). In FIGS. 1A, 1B, 1C, IC50 values are depicted as a vertical dotted line with the 95% confidence interval and were calculated using a dose-response-inhibition analysis on GraphPad Prism v 5.0 software. All the non-toxic GRFT concentrations were tested in triplicates and are shown with the mean±SD.
(§2) The activity of GRFT against HIV was verified in standard in vitro assays. […]

[2] = system: HIV-1MN (X4 virus); assay: MAGI assay in TZM-bl cells, anti-HIV activity; assay type: cell-based; conditions: 72 h, FIG. 1A
Experimental: as §1, §2

[3] = system: HIV-1NL4-3; assay: Anti-HIV activity in PBMC, p24 ELISA; assay type: cell-based; conditions: activated PBMC, p24 ELISA day 7, FIG. 1B
Experimental: as §1
Anti-HIV activity was also tested in peripheral blood mononucleated cells (PBMC) using the laboratory strains HIV-1NL4-3 according to conventional methods. See Trkola A, et al., J Virol. 1999 November; 73(11):8966-74. […]

[4] = system: HPV16 PsV; assay: HPV pseudovirus luciferase assay in HeLa cells; assay type: cell-based
Experimental: The activity of GRFT against HPV pseudoviruses was also investigated. […] All the non-toxic GRFT concentrations were tested in triplicates. The graphics show the mean±SD.
Medium-treated (virus only) cells were included as a control. […] In order to assay for anti-HPV activity, HeLa cells were treated with varying equipotent doses of GRFT, C or GRFT+C (based on IC50 of each API) at 37° C. and immediately exposed to HPV16 PsV (triplicates). Medium-treated (virus only) cells were included as a control. The luciferase assay was performed 72 h after infection. […] As provided therein, “CI” refers to a quantitative measure of the degree of drug interaction as follows: additive effect (CI=1); synergism (CI <1), or antagonism (CI >1). […]

[5] = system: HPV18 PsV; assay: HPV pseudovirus luciferase assay in HeLa cells; assay type: cell-based; conditions: 72 h, FIG. 1C
Experimental: as §1
(§3) The activity of GRFT against HPV pseudoviruses was also investigated. […]

[6] = system: HPV45 PsV; assay: HPV pseudovirus luciferase assay in HeLa cells; assay type: cell-based; conditions: 72 h, FIG. 1C
Experimental: as §1, §3

[7] = system: HIV-192BR014; assay: Anti-HIV combination activity in activated PBMCs, p24 ELISA, Chou-Talalay; assay type: cell-based; conditions: PBMC, HIV-1 92BR014, p24 day 7; combination value refers to the API in bold font (GRFT); read-out: Dm, median-effect dose (IC50)
Experimental: Briefly, in order to test anti-HIV activity, activated PBMCs were treated with varying equipotent doses (based on IC50 of each API) of GRFT, ZA or GRFT+ZA at 37° C. 1 h prior to exposure to 100 TCID50 of HIV-192BR014 in the presence of the same doses of each compound or combination (triplicates). Medium-treated (virus only) cells were included as a control. Eighteen hours later the cells were washed and plated in the presence of medium with IL-2 (with the only exception of those samples treated with ZA, where ZA was replaced). This step was repeated on day 4 and the supernatants collected on day 7 to measured HIV-1 p24 levels by ELISA. […] Combination indexes (CI) were estimated using the Chou-Talalay method (Chou, T. C. Pharmacological Reviews, 2006, 58(3): p. 621-81) with the Cacusyn for Windows software (Biosoft, Cambridge, United Kingdom). As provided therein, “CI” refers to a quantitative measure of the degree of drug interaction as follows: additive effect (CI=1); synergism (CI <1), or antagonism (CI >1). “Dm” refers to the median-effect dose (IC50); “m” refers to a measurement of the sigmoidicity of the dose-effect curve, and also represents the slope of the median-effect plot; and “r” refers to the linear correlation coefficient of the median-effect plot. […]

[8] = system: HSV-2 G strain; assay: Plaque inhibition assay in Vero cells, inhibition of virus adsorption; assay type: cell-based; conditions: 4° C., plaque forming units, FIG. 2A
[9] = system: HSV-2 G strain; assay: Plaque inhibition assay in Vero cells, inhibition of virus entry; assay type: cell-based; conditions: 4° C. then 37° C. 2 h, citric acid buffer, FIG. 2B
[10] = system: HSV-2 G strain; assay: Dye-uptake PrestoBlue antiviral assay in Vero cells; assay type: cell-based; conditions: 6 day incubation, combination value based on API with bold font
Experimental: We previously reported that the combination of ZA and CG results in a potent antiviral synergy against HSV-2. Fernandez-Romero, J. A., et al., Antimicrobial agents and chemotherapy, 2012. 56(1): p. 358-68. […] Briefly, HSV-2 G strain and different concentrations of each compound or their combinations (based on equipotency IC50 ratios) were pre-incubated at 37° C. and added to Vero cells followed by a 6 day incubation at 37° C., 5% CO2 and 98% humidity. A dye-uptake PrestoBlue assay was performed to test antiviral activity. Relative fluorescent units (RFU) were measured at 570 nm for excitation and 600 nm for emission. The % of virus replication was calculated using the following formula: % Virus replication=[(O.Dcell control−O.Dcompound)/(O.Dcell control−O.Dvirus control)]*100. IC50 values were calculated using a dose-response-inhibition analysis on GraphPad Prism v 5.0 software. As provided therein, ¶ IC50 or % IC50 reduction values are based on API with bold font; NA=Not applicable.

[11] = system: HIV-1; conditions: p24 ELISA and RT; cited from earlier work

## Griffithsin [GRFT]
[1]
  anti-HIV activity in vitro: potent anti-HIV activity
[2]
  anti-HIV activity in vitro: potent anti-HIV activity
[3]
  anti-HIV activity in vitro: potent anti-HIV activity
[4]; HeLa cells, luciferase assay, 72 h, FIG. 1C
  in vitro activity against HPV16 PsV: moderate in vitro activity
[4]; HeLa, HPV16 PsV, luciferase 72 h, combination value refers to the API in bold font, read-out: Dm, median-effect dose (IC50)
  IC50: 32.7 µM
[5]
  in vitro activity against HPV18 PsV: moderate in vitro activity
[6]
  in vitro activity against HPV45 PsV: moderate in vitro activity
[7]
  IC50: 0.0004 µM
[8]
  inhibition of virus adsorption: does not prevent viral adsorption
[9]
  inhibition of virus entry: prevents HSV-2 entry
[10]
  IC50 (95% confidence interval): 19 µg/mL

## [Cl-].[Cl-].[Zn+2] [zinc chloride]
[11]
  HIV-1 production: inhibited HIV-1 production

## CC(=O)[O-].CC(=O)[O-].[Cd+2] [cadmium acetate]
[11]
  HIV-1 production: inhibited HIV-1 production

## [Cl][Hg][Cl] [mercury chloride]
[11]
  HIV-1 production: inhibited HIV-1 production

## CC(=O)[O-].CC(=O)[O-].[Zn+2] [ZA, zinc acetate]
[7]
  IC50: 48.3 µM
[10]
  IC50 (95% confidence interval): 58.2 µg/mL
